Measurements reported in patent publication US12692278B2, “Synthesis methods and compositions of low intermediate and low dichelate intermediate contrast agents” (priority 2021, dated 2026).
“And” between values parts separate entries of the source, which are not always exact repeats. Identical values can stand only once.

Columns and labels:
Format in all cases: physicochemical
[1] = pH controlled synthesis, free Gd versus synthesis time
Method: Here, Example 1A is modified by the addition of gadolinim oxide in its entirety at first and immediately after the introduction of the DOTA, and this procedure is used to produce batch A of Gd-DOTA. Batch B is produced using the following modified procedure.
• 1. Heat reactor to 95° C. • 2. Charge water with all of gadolinium oxide • 3. Stir (stir unless otherwise indicated, nominal rate 300 rpm) until the solution is clear • 4. Add sufficient DOTA to obtain a pH of 4 • 5. When pH is >5 charge sufficient DOTA to reach pH of 4 • 6. Stir until uniformly distributed in the water, and clear • 7. If pH<4, then go to step 9 • 8. Go to step 4 • 9. Divide remaining portion of DOTA into 5 parts • 10. Add 1 part of remaining DOTA • 11. Stir until uniformly distributed in the water, and clear • 12. If DOTA remains to be added go to step 10 • 13. Continue to cook for a total of 12 hours Results

[2] = Effect of solvent (ethanol) on intermediate formation and destabilization of stable complex; details: mixed with 10% v-v ethanol, ethanol evaporated 12 hrs
Method: At each time step, samples were mixed with 10% v-v ethanol. The ethanol was driven from the sample by evaporation (heating under vacuum) for 12 hrs. Free Gadolinium was determined by using the spectrometric xylenol orange technique described in previous studies.
At each time step, samples were mixed with 10% v-v ethanol. The ethanol was driven from the sample by evaporation (heating under vacuum) for 12 hrs. Free Gadolinium was determined by using the improved spectrometric xylenol orange technique described in previous studies.

[3] = Free gadolinium as a function of synthesis time, spectrometric xylenol orange; details: for Free Gd, titrated with meglumine to pH 7.0: after 32 hrs synthesis
Method: Once the reference solution is prepared, then product runs can be indexed against this standard. • 23. An improvement over earlier methods involves in-line or batch sample monitoring of metastable intermediate presence. For example, the monitoring can be by Fourier Transform Infrared Spectroscopy, High Performance Liquid Chromatography, Ultra High Performance Liquid Chromatography, or Trans-metalation reaction. The reactant can be titrated with a strong acid (0.1 M HCl) and the free Gd3+ ion quantified by the improved xylenol orange titration according to the present disclosure. The metastable intermediate will release free Gd3+ more quickly than fully complexed Gd-DOTA. The presence of multiple metastable intermediate forms can be detected by dynamic titration over the span of an hour or more, and calculating the Gd3+ ion as a function of time. • 24. In addition, the relative kinetic stability of a Gd-DOTA complex is accessed by exposing the solution to phosphate anions at physiological pH. Even chelates with very high thermodynamic stability constants will equilibrate to form some free chelate and non-chelated gadolinium. Since gadolinium phosphate is insoluble, any non-chelated gadolinium will precipitate as insoluble gadolinium phosphate, and the free Gd3+ ion can be quantified by weighing the precipitate. Verify Complex Formation • 25. Verify absence of free gadolinium using Xylenol orange • 26. If free gadolinium detected, add X DOTA, raise temperature to 95+1-2° C., stir for 1 hr and proceed to step 16 • 27. If not, proceed to step 23 Preparation of Gadoteric Acid Meglumine Solution • 28. Add 90% of the meglumine at 40-45° C. • 29. Sir 10 minutes • 30. Measure pH—in-line probe calibrated to 25° C. (USP) • 31. If pH is >7.5, discard • 32. If pH is between 7.0 and 7.5, then go to step 29 • 33. If pH<than 7.0, add 2% of the Meglumine, go to step 24 • 34. Stir for 1 hr at 40-45° C. • 35. Check solution is clear, if yes proceed to 31, if not repeat 29 Gadoteric Acid Meglumine Solution Filtration • 36. Cool the solution to 20-25° C. • 37. Filter the solution using the carbon filter • 38. Rinse the reactor with 20-25° C. water using ¼ V • 39. Pass rinse through the filter • 40. Repeat rinse steps 33 & 34 for a total of 2 rinses • 41. Place filtrate and rinses back in reactor • 42. Stir at 25-30° C. for 10 min • 43. Measure Free DOTA by HPLC • 44. If Free DOTA is 0.01-0.06% ww proceed to 42 • 45. If Free DOTA<0.01% ww, add 0.03% ww equivalent of DOTA • 46. Stir for ½ hr and go to step 38 • 47. Measure pH—in-line probe calibrated to 25° C. (USP) • 48. If pH is between 7.0 and 7.5, then go to step 45 • 49. If pH<7.0, add meglumine. Stir 10 min. Go to step 42. • 50. Stir ½ hr. • 51. Check solution is clear, if yes proceed to 47, if not repeat 45 Verify Purity • 52. Measure Purity by HPLC • 53. If individual impurity>0.05%, go to step 32 Final API Adjustments • 54. Measure Free DOTA by HPLC • 55. If Free DOTA>0.06% ww, repeat steps 32-42 • 56. If Free DOTA is 0.01-0.06% ww proceed to 55 • 57. If Free DOTA<0.01% ww, add 0.03% ww equivalent of DOTA • 58. Stir ½ hr • 59. Go to Step 49 • 60. Measure pH • 61. If pH is 7.0-7.5, then go to step 53 • 62. If pH<7.0, add Meglumine. Stir 10 min. Go to step 55 Final API Testing • 63. Perform full API testing: Gadolinium content; Meglumine Content; Assay; Water Content; Heavy Metals Free Gadolinium as a Function of Synthesis Time Using the Method of Example 1A.
Free Gadolinium was determined by using the spectrometric xylenol orange technique described in previous studies.
Free Gadolinium as a Function of Synthesis Time Using the Method of Example 1.
Free Gadolinium was determined by using the improved spectrometric xylenol orange technique described in previous studies.

[4] = Metastable intermediates as a function of reaction time
Method: • 1. Heat reactor to 25-30° C. • 2. Charge water with DOTA • 3. Begin stirring (stir unless otherwise indicated, nominal rate 300 rpm) • 4. Charge 10% of the DOTA • 5. Stir until uniformly distributed in the water • 6. If all the DOTA is charged, then go to step 8 • 7. Go to step 4 • 8. Stir 10 min Preparation of Gadolinium: DOTA Complex • 9. Charge 25% by weight of the Gadolinium oxide • 10. Stir until uniformly distributed • 11. If all the Gadolinium oxide is charged then go to step 13 • 12. Go to step 9 • 13. Stir 10 min • 14. Raise temperature to 95+/−2° C. • 15. Stir 3 hrs. • 16. Check clarity • 17. If not clear continue for 1 hr, go to step 16 (this step took about 12 hours) • 18. If clear, continue 1 hr and then cool to 40-45° C. • 19. If precipitate forms, heat to 95+/−2° C. and stir for 1 hr, go to step 16 Verify Gd-Dota is Free of Metastable Intermediates • 20. A standard metastable-free Gd-DOTA reference solution is obtained by taking 5 ml of reactant obtained from steps 1-19 and diluting to a 0.2 mM Gd-DOTA solution. One measures the metastable intermediate content after synthesis for 5, 10, 15, 20, 25, 30, and 35 hours, or until the concentration of the metastable intermediate asymptotes as close to zero as possible. • 21. […] The output from a copper vapor laser tuned to 578.2 nm (Oxford Lasers, Didcot, United Kingdom) is directed through the reactant and the excitation spectrum obtained at 578.2 nm. Baseline is established by directing the laser through the quartz vessel filled with distilled water.
Stoichiometric ratios of gadolinium oxide were reacted with DOTA according to the procedure outlined in Example 1. Measurements were taken (N=1) to conserve volume. The final measurement was performed 5 times.

[5] = Feasibility of cation exchange (sodium polystyrene sulfonate), free Gd3+ by xylenol orange; details: stoichiometric sodium polystyrene sulfonate, room temperature, N = 5
Method: Feasibility of cation exchange as a method of making Gd-DOTA with low metastable intermediates
Using sodium polystyrene sulfonate, rather than the polymer described above.
Ten samples were stored at room temperature with a stoichiometric amount of sodium polystyrene sulfonate.
Samples were tested using the improved spectrometric xylenol orange method.

[6] = Feasibility of excess DTPA, free Gd3+ by xylenol orange; details: stoichiometric DTPA, room temperature, 24 hours
Method: The metastable intermediate concentration is determined by Example 3, and associated methods described in the present application. A Gd-DOTA synthesis containing metastable intermediates is heated to 95° C. in the presence of a stoichiometric amount of DTPA sufficient to consume all the metastable intermediates. The presence of metastable intermediates can be measured as a function of time. The reaction is continued until a desired metastable intermediate content is obtained. Depending on the amount of free DOTA thus liberated, the free DOTA can be reacted with a positively charged resin, as is known in the art. Alternatively, the free DOTA may serve as a buffer against free Gd3+ formation, as is permitted in some drug formulations. Ten samples were prepared by adding stoichiometric amounts of DTPA to counter the excess Gd3+ and stored at room temperature for 24 hours. Samples were tested using the improved spectrometric xylenol orange method.

## O=C([O-])CN1CCN(CC(=O)[O-])CCN(CC(=O)O)CCN(CC(=O)[O-])CC1.[Gd+3] [Batch A, Gd-DOTA]
[1]; synthesis time 4 hrs
  Free Gd: 15,036 +/− 12.8 ppm
[1]; synthesis time 8 hrs
  Free Gd: 4,947 +/− 9.9 ppm
[1]; synthesis time 12 hrs
  Free Gd: 1,792 +/− 10.5 ppm

## O=C([O-])CN1CCN(CC(=O)[O-])CCN(CC(=O)O)CCN(CC(=O)[O-])CC1.[Gd+3] [Batch B, Gd-DOTA]
[1]; synthesis time 4 hrs
  Free Gd: 19,276 +/− 6.3 ppm
[1]; synthesis time 8 hrs
  Free Gd: 2,793 +/− 7.1 ppm
[1]; synthesis time 12 hrs
  Free Gd: 377 +/− 5.2 ppm

## O=C([O-])CN1CCN(CC(=O)[O-])CCN(CC(=O)O)CCN(CC(=O)[O-])CC1.[Gd+3] [Example 1A, Gd-DOTA]
[2]; synthesis time 4 hrs
  Free Gd: 71,830 ppm
[2]; synthesis time 8 hrs
  Free Gd: 7,044 ppm
[2]; synthesis time 12 hrs
  Free Gd: 2,146 ppm
[2]; synthesis time 16 hrs
  Free Gd: 957 ppm
[2]; synthesis time 20 hrs
  Free Gd: 401 ppm
[2]; synthesis time 24 hrs
  Free Gd: 147 ppm
[2]; synthesis time 28 hrs
  Free Gd: 92 ppm
[2]; synthesis time 32 hrs
  Free Gd: 56 (compare to 0.77 without solvents) ppm
[3]
  Free Gd, titrated with meglumine to pH 7.0: 0.77+/−0.92 ppm
[3]; synthesis time 4 hrs
  Free Gd: 17,467 +/− 9.4 ppm
[3]; synthesis time 8 hrs
  Free Gd: 3,448 +/− 8.9 ppm
[3]; synthesis time 12 hrs
  Free Gd: 803 ppm and 803 +/− 8.1 ppm
[3]; synthesis time 16 hrs
  Free Gd: 509 +/− 4.2 ppm
[3]; synthesis time 20 hrs
  Free Gd: 63.6 +/− 9.7 ppm
[3]; synthesis time 24 hrs
  Free Gd: 31.0 +/− 2.1 ppm
[3]; synthesis time 28 hrs
  Free Gd: 1.2 +/− 0.72 ppm
[3]; synthesis time 32 hrs
  Free Gd: 0.25 +/− 0.67 ppm

## O=C([O-])CN1CCN(CC(=O)[O-])CCN(CC(=O)O)CCN(CC(=O)[O-])CC1.[Gd+3] [Example 1B, Gd-DOTA]
[2]; synthesis time 4 hrs
  Free Gd: 71,830 ppm
[2]; synthesis time 8 hrs
  Free Gd: 7,044 ppm
[2]; synthesis time 12 hrs
  Free Gd: 2,146 ppm
[2]; synthesis time 16 hrs
  Free Gd: 957 ppm
[2]; synthesis time 20 hrs
  Free Gd: 401 ppm
[2]; synthesis time 24 hrs
  Free Gd: 147 ppm
[2]; synthesis time 28 hrs
  Free Gd: 92 ppm
[2]; synthesis time 32 hrs
  Free Gd: 56 (compare to 0.77 without solvents) ppm
[3]
  Free Gd, titrated with meglumine to pH 7.0: 0.77+/−0.92 ppm
[3]; synthesis time 4 hrs
  Free Gd: 17,467 +/− 9.4 ppm
[3]; synthesis time 8 hrs
  Free Gd: 3,448 +/− 8.9 ppm
[3]; synthesis time 12 hrs
  Free Gd: 803 ppm and 803 +/− 8.1 ppm
[3]; synthesis time 16 hrs
  Free Gd: 509 +/− 4.2 ppm
[3]; synthesis time 20 hrs
  Free Gd: 63.6 +/− 9.7 ppm
[3]; synthesis time 24 hrs
  Free Gd: 31.0 +/− 2.1 ppm
[3]; synthesis time 28 hrs
  Free Gd: 1.2 +/− 0.72 ppm
[3]; synthesis time 32 hrs
  Free Gd: 0.25 +/− 0.67 ppm

## O=C([O-])CN1CCN(CC(=O)[O-])CCN(CC(=O)O)CCN(CC(=O)[O-])CC1.[Gd+3] [Example 5, Gd-DOTA]
[4]; 3 hours of reaction
  Metastable Intermediates: 28,094 +/− 9.7 ppm
[4]; 8 hours of reaction
  Metastable Intermediates: 3,853 +/− 12.4 ppm
[4]; 24 hours of reaction
  Metastable Intermediates: 72 +/− 5.0 ppm
[4]; 32 hours of reaction
  Metastable Intermediates: 0.8 +/− 1.3 ppm
[4]; after 32 hours of reaction, unit not given
  Metastable Intermediates after titration with meglumine to pH 7.0: 1.2 +/− 3.8

## Gd-DOTA [Example 6]
[5]; 24 hrs
  Free Gd3+ after samples treated: 685 +/− 9.4
[5]; 48 hrs
  Free Gd3+ after samples treated: 292 +/− 15.2
[5]; 96 hrs
  Free Gd3+ after samples treated: 8.9 +/− 8.5

## Gd-DOTA [Example 7]
[6]
  Gd3+ after samples treated with DTPA, range (upper value, down to undetectable): ≤ 27.6 ppm
[6]; N=5
  Gd3+ after samples treated with DTPA: 14.8+/−11.6 ppm
